Assay results taken from patent US7951364B2, “CaR receptor as a mediator of migratory cell chemotaxis and/or chemokinesis” (The General Hospital Corporation, priority 2000, dated 2011).

Legend:
[1] = test system: mononuclear cells derived from neonatal CaR −/−, +/− or +/+ mice; assay: Transmigration assay with cells from CaR knockout and wild-type mice; type: cell-based, mouse; conditions: CaR −/− cells
Procedure: Transmigration assays. Transwells (5 μm pore size polycarbonate membrane, 12 mm diameter) (Costar, Corning, N.Y.) were used to assess cell migration using an established methodology (25). The concentration of Ca^++ in IMDM (CellGro, Herndon, Va.) in the upper and lower chambers of the transwell were adjusted according to a checkerboard analysis of chemotaxis. Calcium concentrations varied from 0 mM to 6.5 mM. Purified monocytes (1×10^4) were then placed in the top chamber with 150 μl of IMDM (CellGro, Hemdon, Va.). 500 μl of the medium was added to the bottom of the well and supplemented with varying concentrations of Ca^++ or with Ca^++ plus 10 ng/ml of MCP-1, 100 ng/ml of SDF-1α or 10 ng/ml of MIP-1α (PeproTech, Rocky Hills, N.Y.). Cells were incubated at 37° C. for 3 hours. To study inhibition of chemotaxis, cells were subsequently incubated with wortmannin (1 μM for 20 minutes at 37° C.), herbimycin (1 μM for 20 minutes at 37° C.) or genistein (1 μg/ml for 20 minutes at 37° C.), before their use in transmigration assays. At the end of the experiment, cells were then harvested from the lower chamber and counted using a hemocytometer.
CaR−/− were bred as previously described (Ho, C., et al., Nat Genet 1995, 11:389-94). To produce CaR−/− mice for this study, heterozygote mice were intercrossed. The mice studied were either 129S6/svev or 129S6/svev/Swiss Webster mixed genetic background. […]

human CD34^+ cells = assay: In vitro assays of human CD34^+ hematopoietic progenitor cells; type: cell-based; conditions: increased Ca^2+ concentration
Description: Calcium ions effect Hematopoietic Progenitor Cells. We also assessed the effects of calcium, through its interaction with the calcium sensing receptor (CaR) using in vitro assays of human CD34^+ cells. […] Therefore, calcium participates in maintaining candidate stem cells in a primitive, undifferentiated state. […] This was accompanied by a decrease in the level of LTC-ICs in the bone marrow, but an increase in the level of CFU-Cs, with a converse increase in hematopoietic stem cells in is the peripheral blood.

CXCR-4 = conditions: elevated Ca^++
Procedure: (§1) Chemokine receptor expression and flow cytometric analysis. Purified monocytes were incubated in a Ca^++-free medium supplemented with 1 mM, 3 mM or 5 mM CaCl2 or with 1.5 mM CaCl2 plus 1 μM NPS R-467 or S-467. Cells were washed once in PBS with 1% FCS and resuspended in 100 μl of Ca^++-free PBS. Monoclonal antibody against the CaR was added to the cells and incubated alone or with the CaR peptide for 30 min at room temperature. Cells were washed with PBS containing 1% FCS, resuspended in PBS with 1% FCS and incubated for 15 min at room temperature with anti-mouse IgG conjugated to FITC. The cells were washed again and conjugated monoclonal antibody [anti-CXCR4, anti-CCR5 (Pharmingen, San Diego, Calif.); anti-CCR2 (R&D, Minneapolis, Minn.); anti-CD14 (Becton Dickinson, San Jose, Calif.); or anti-CD4 (Becton Dickinson, San Jose, Calif.)] was added and incubated for 15 min at room temperature. Stained cells were fixed with 1% paraformaldehyde and assayed within 24 hrs. Flow cytometric analysis was performed using a dual laser FACSCalibur (Becton Dickinson Immunocytometry Systems, San Jose, Calif.) calibrated using 2 μm Calibrite beads (Becton Dickinson). Data acquisition and analysis were performed using CellQuest software (Becton Dickinson).

CD4 = conditions: varying Ca^++ concentration
Procedure: as §1

CCR-5 = conditions: elevated Ca^++
Procedure: as §1

Question: What does the source list for `[Ca+2].[Cl-].[Cl-]` [Ca^++, calcium chloride]?
Answer: Transmigration to the Ca^++ gradient [1]: failed to transmigrate; Number of more mature BFU-Es (human CD34^+ cells; p=0.017): decrease; Level of primitive cells measured by LTC-ICs (human CD34^+ cells; p=0.037): increase; CXCR-4 expression (CXCR-4): increased but did not achieve statistical significance; Fluorescence intensity of anti-CD4 antibody staining (CD4): did not vary; CCR-5 median fluorescence intensity (CCR-5): failed to demonstrate any change
